Tests used:
[1] = cited from earlier work
[2] = Human clinical trial: blood pressure after daily/weekly oral treatment for 4 months; assay type: in vivo; settings: for Diastolic blood pressure (GLM least square mean) / Systolic blood pressure (GLM least square mean): healthy postmenopausal women, 20 μg per day or 140 μg per week oral, repeated measurement analysis over 13 visits adjusted for baseline blood pressure and time; for Effect on blood pressure (in words): mildly hypertensive subjects, none above 146/95 mmHg
Description: Each group includes five subjects. They are followed for four months in Ziirich, Switzerland during the winter.
Equimolar quantities of both substances were investigated. […] As the maximum pre-existing baseline concentration of 25-hydroxyvitamin D3 will be 50 nmol/L, it is not anticipated that subjects will approach the range where disturbance in Ca^2+ homeostasis has been observed.
Each dosage was consumed orally at breakfast.
For blood pressure assessments a standard protocol was used (OMRON professional apparatus) to measure diastolic and systolic blood pressure in Week 1 on visit 2 (baseline) and the remaining 4 days of Week 1. The assessments continued at each visit of Weeks 2, 3, 5, 7, 9, 11, 13 and 15.
Treatment duration was 4 months.

[3] = 20 μg per day or 140 μg per week, 4 months, 13 visits, adjusted for baseline blood pressure and time
[4] = daily or weekly treatment, identical dosages

SMILES	Blood concentration of 25-hydroxyvitamin D3 at which hypercalcemia may occur ([1]; in vivo)	Diastolic blood pressure, change vs. daily/weekly Vitamin D3 [2, 3] [mmHg]	Systolic blood pressure, change vs. daily/weekly Vitamin D3 [2, 3] [mmHg]	Reduction of diastolic blood pressure versus Vitamin D3 [2, 4] [mmHg]	Reduction of systolic blood pressure versus Vitamin D3 [2, 4] [mmHg]	Diastolic blood pressure (GLM least square mean) ([2]; 4 months) [mmHg]	Systolic blood pressure (GLM least square mean) ([2]; 4 months) [mmHg]	Effect on blood pressure (in words) [2]	Blood concentration of 25-hydroxyvitamin D3 resulting from ingestion as dietary supplement ([1]; ingestion of vitamin D3 at the safe upper level (250 μg/day))
C=C1CC[C@H](O)C/C1=C/C=C1\CCC[C@]2(C)[C@@H]([C@H](C)CCCC(C)(C)O)CC[C@@H]12 [25-OH D3, 25-hydroxyvitamin D3]	greater than 375 nmol/L	−1.4	−6.1	1.4	6.1	68.9	111.1	very effective reduction of blood pressure	
C=C1CC[C@H](O)C/C1=C/C=C1\CCC[C@]2(C)[C@@H]([C@H](C)CCCC(C)C)CC[C@@H]12 [Vitamin D3, cholecalciferol]						70.3	117.2	no effect	about 200 nmol/L

— patent US20110118218A1, “TREATING HYPERTENSION WITH 25-HYDROXYVITAMIN D3” (priority 2008, published 2011)
